# Measured values published in patent publication US6479531B1, “Gastrin and cholecystokinin receptor ligands” (James Black Foundation Limited, priority 1998, dated 2002).
# Biological target: T1, gastrin receptor (Rattus norvegicus, UniProt P30553)
# T1 construct: The stomach was excised and flushed with ca. 1 ml of unbuffered physiological saline solution; from tissue; host or cells: isolated whole stomach of immature rats (ca. 21 days old)
# T1 sequence (P30553 1-452): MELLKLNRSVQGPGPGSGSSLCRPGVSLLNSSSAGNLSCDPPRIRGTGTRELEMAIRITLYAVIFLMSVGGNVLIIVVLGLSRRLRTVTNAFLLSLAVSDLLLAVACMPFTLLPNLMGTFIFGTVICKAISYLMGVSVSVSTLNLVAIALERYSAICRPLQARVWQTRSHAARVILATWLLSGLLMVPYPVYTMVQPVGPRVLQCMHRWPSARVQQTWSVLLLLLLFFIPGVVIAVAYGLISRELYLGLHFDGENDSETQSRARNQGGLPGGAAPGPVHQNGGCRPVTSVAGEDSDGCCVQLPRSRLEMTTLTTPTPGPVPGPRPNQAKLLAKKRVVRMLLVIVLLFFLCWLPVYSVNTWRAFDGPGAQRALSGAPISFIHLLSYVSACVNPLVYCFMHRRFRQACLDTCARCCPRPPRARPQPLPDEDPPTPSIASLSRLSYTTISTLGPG
# Assay: gastrin antagonist activity in immature rat stomach assay (pentagastrin dose-response, acid secretion)
# Details: isolated immature rat stomach, cumulative pentagastrin dose-response curves
# Summary of the method: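 Gastrin antagonism was measured as the effect on cumulative pentagastrin dose-response curves of acid output, recorded by pH electrode in the perfusate of an excised immature rat stomach (ca. 21 days old). Test compound was placed in the serosal bath (37°, 3×10^−8 M 5-methylfurmethide) 60 min before pentagastrin.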
row,SMILES,Gastrin pKb
1,"Cc1ccc(NC(=O)c2nc([C@H]3CC4C=C[C@@H]3C4)[nH]c2COC23CC4CC(CC(C4)C2)C3)cc1C(=O)O [Example 289, endo-5-{[5-(Adamantan-1-yloxymethyl)-2-((1S,2S)-bicyclo[2.2.1]hept-5-en-2-yl)-1H-imidazole-4-carbonyl]-amino}-2-methyl-benzoic Acid]",8.74
2,"Cc1ccc(NC(=O)c2nc([C@@H]3CC4C=C[C@H]3C4)[nH]c2COC23CC4CC(CC(C4)C2)C3)cc1C(=O)O [Example 290, endo-5-{[5-(Adamantan-1-yloxymethyl)-2-((1R,2R)-bicyclo[2.2.1]hept-5-en-2-yl)-1H-imidazole-4-carbonyl]-amino}-2-methyl-benzoic Acid]",8.55
3,"O=C(O)c1cccc(NC(=O)c2nc([C@H]3CC4CC[C@H]3C4)[nH]c2COC23CC4CC(CC(C4)C2)C3)c1 [Example 291, endo-3-{[5-(Adamantan-1-yloxymethyl)-2-((1S,2S)-bicyclo[2.2.1]hept-2-yl)-1H-imidazole-4-carbonyl]-amino}-benzoic Acid]",9.12
4,"O=C(O)c1cccc(NC(=O)c2nc([C@@H]3CC4CC[C@@H]3C4)[nH]c2COC23CC4CC(CC(C4)C2)C3)c1 [Example 292, endo-3-{[5-(Adamantan-1-yloxymethyl)-2-((1R,2R)-bicyclo[2.2.1]hept-2-yl)-1H-imidazole-4-carbonyl]-amino}-benzoic Acid]",8.57
5,"O=C(O)c1cccc(NC(=O)c2nc([C@@H]3CC4C=C[C@@H]3C4)[nH]c2COC23CC4CC(CC(C4)C2)C3)c1 [Example 294, exo-3-([5-(Adamantan-1-yloxymethyl)-2-((1S,2R)-bicyclo[2.2.1]hept-5-en-2-yl)-1H-imidazole-4-carbonyl]-amino}-benzoic Acid]",8.43
6,"O=C(O)c1cccc(NC(=O)c2nc([C@H]3CC4C=C[C@H]3C4)[nH]c2COC23CC4CC(CC(C4)C2)C3)c1 [Example 295, exo-3-{[5-(Adamantan-1-yloxymethyl)-2-((1R,2S)-bicyclo[2.2.1]hept-5-en-2-yl)-1H-imidazole-4-carbonyl]-amino}-benzoic Acid]",8.61

# Same assay, conditions: isolated immature rat stomach, cumulative pentagastrin dose-response curves, read-out: Gastrin pKb (converted)
row,SMILES,Kb [nM]
1,"O=C(NO)c1cccc(NC(=O)c2nc(C3CCCCC3)[nH]c2COC23CC4CC(CC(C4)C2)C3)c1 [Example 286, 5-(Adamantan-1-yloxymethyl)-2-cyclohexyl-1H-imidazole-4-carboxylic Acid (3-hydroxycarbamoyl-phenyl)-amide]",26.9
2,"O=C(Cc1cccc(NC(=O)c2nc(C3CCCCC3)[nH]c2COC23CC4CC(CC(C4)C2)C3)c1)NO [Example 287, 5-(Adamantan-1-yloxymethyl)-2-cyclohexyl-1H-imidazole-4-carboxylic Acid (3-hydroxycarbamoylmethyl-phenyl)-amide]",91.2
3,"Cc1ccc(NC(=O)c2nc(C3C4CCC3CC4)[nH]c2COC23CC4CC(CC(C4)C2)C3)cc1C(=O)O (centres unmarked) [Example 293, 5-{[5-(Adamantan-1-yloxymethyl)-2-bicyclo[2.2.1]hept-7-yl-1H-imidazole-4-carbonyl]-amino}-2-methyl-benzoic Acid]",3.02
4,"Cc1ccc(NC(=O)c2nc(C3CCCCCC3)[nH]c2COC23CC4CC(CC(C4)C2)C3)cc1C(=O)O [Example 296, 5-{[5-(Adamantan-1-yloxymethyl)-2-cycloheptyl-1H-imidazole-4-carbonyl]-amino}-2-methyl-benzoic Acid]",2.09
5,"O=C(O)c1cccc(NC(=O)c2nc(C3CCCCCCC3)[nH]c2COC23CC4CC(CC(C4)C2)C3)c1 [Example 297, 3-{[5-(Adamantan-1-yloxymethyl)-2-cyclooctyl-1H-imidazole-4-carbonyl]-amino}-benzoic Acid]",0.851
6,"Cc1ccc(NC(=O)c2nc(C3CCCCCCC3)[nH]c2COC23CC4CC(CC(C4)C2)C3)cc1C(=O)O [Example 298, 5-{[5-(Adamantan-1-yloxymethyl)-2-cyclooctyl-1H-imidazole-4-carbonyl]-amino}-2-methyl-benzoic Acid]",1.95
7,"O=C(O)c1cc(NC(=O)c2nc(C3CCCCC3)[nH]c2COC23CC4CC(CC(C4)C2)C3)ccc1F [Example 299, 5-{[5-(Adamantan-1-yloxymethyl)-2-cyclohexyl-1H-imidazole-4-carbonyl]-amino}-2-fluoro-benzoic Acid]",20.4
8,"Cc1ccc(NC(=O)c2nc(C34CCC(CC3)CC4)[nH]c2COC23CC4CC(CC(C4)C2)C3)cc1C(=O)O [Example 300, 5-{[5-(Adamantan-1-yloxymethyl)-2-bicyclo[2.2.2]oct-1-yl-1H-imidazole-4-carbonyl]-amino}-2-methyl-benzoic Acid]",3.02
9,"Cc1ccc(NC(=O)c2nc(C34C=CC(CC3)CC4)[nH]c2COC23CC4CC(CC(C4)C2)C3)cc1C(=O)O [Example 301, 5-{[5-(Adamantan-1-yloxymethyl)-2-bicyclo[2.2.2]oct-2-en-1-yl-1H-imidazole-4-carbonyl]-amino}-2-methyl-benzoic Acid]",2.63
10,"O=C(O)c1cccc(NC(=O)c2c(COC34CC5CC(CC(C5)C3)C4)nc(C3CCCCC3)n2O)c1 [Example 308, 3-{[5-(Adamantan-1-yloxymethyl)-2-cyclohexyl-3-hydroxy-3H-imidazole-4-carbonyl]-amino}-benzoic Acid]",18.6

# Now from value to molecule:
row,Kb [nM],SMILES
1,145,"Cc1ccccc1-c1nc(CNc2cccc(C(=O)O)c2)c(CCC23CC4CC(CC(C4)C2)C3)n1C [Example 279, 3-{[5-(2-Adamantan-1-yl-ethyl)-1-methyl-2-o-tolyl-1H-imidazol-4-ylmethyl]-amino}-benzoic Acid]"
2,1820,"Cc1ccccc1-c1nc(CCc2cccc(C(=O)O)c2)c(CCC23CC4CC(CC(C4)C2)C3)[nH]1 [Example 280, 3-{2-[5-(2-Adamantan-1-yl-ethyl)-2-o-tolyl-1H-imidazol-4-yl]-ethyl}-benzoic Acid]"
3,2090,"Cc1ccccc1-c1nc(C(=O)Oc2cccc(C(=O)O)c2)c(CCC23CC4CC(CC(C4)C2)C3)[nH]1 [Example 281, 5-(2-Adamantan-1-yl-ethyl)-2-o-tolyl-1H-imidazole-4-carboxylic Acid 3-carboxy-phenyl Ester]"
4,708,"O=C(O)c1cccc(OC(=O)c2nc(C3CCCCC3)[nH]c2CCC23CC4CC(CC(C4)C2)C3)c1 [Example 282, 5-(2-Adamantan-1-yl-ethyl)-2-cyclohexyl-1H-imidazole-4-carboxylic Acid 3-carboxy-phenyl Ester]"
5,1150,"O=C(O)CCc1ccc(NC(=O)c2nc(C3CCCCC3)[nH]c2CCC23CC4CC(CC(C4)C2)C3)cc1 [Example 283, 3-(4-{[5-(2-Adamantan-1-yl-ethyl)-2-cyclohexyl-1H-imidazole-4-carbonyl]-amino}-phenyl)-propionic Acid]"
6,97.7,"O=C(O)CCc1c(F)ccc(NC(=O)c2nc(C3CCCCC3)[nH]c2CCC23CC4CC(CC(C4)C2)C3)c1F [Example 284, 3-(3-{[5-(2-Adamantan-1-yl-ethyl)-2-cyclohexyl-1H-imidazole-4-carbonyl]-amino}-2,6-difluoro-phenyl)-propionic Acid]"
7,1000,"O=C(Nc1cccc(C(=O)N2CCC[C@H]2C(=O)O)c1)c1nc(C2CCCCC2)[nH]c1CCC12CC3CC(CC(C3)C1)C2 [Example 285, (S)-1-(3-{[5-(2-Adamantan-1-yl-ethyl)-2-cyclohexyl-1H-imidazole-4-carbonyl]-amino}-benzoyl)-pyrrolidine-2-carboxylic Acid]"
8,13.2,"O=C(O)c1cccc(NC(=O)c2nc(C3C4C=CC3C=C4)[nH]c2COC23CC4CC(CC(C4)C2)C3)c1 (centres unmarked) [Example 288, 3-{[5-(Adamantan-1-yloxymethyl)-2-bicyclo[2.2.1]hepta-2,5-dien-7-yl-1H-imidazole-4-carbonyl]-amino}-benzoic Acid]"
9,589,"CCCCCC12CCC(c3nc(C(=O)Nc4cccc(C(=O)O)c4)c(COC45CC6CC(CC(C6)C4)C5)[nH]3)(CC1)CC2 [Example 302, 3-{[5-(Adamantan-1-yloxymethyl)-2-(4-pentyl-bicyclo[2.2.2]oct-1-yl)-1H-imidazole-4-carbonyl]-amino}-benzoic Acid]"
10,11.7,"CC1(c2nc(C(=O)Nc3cccc(C(=O)O)c3)c(COC34CC5CC(CC(C5)C3)C4)[nH]2)CCCCC1 [Example 303, 3-{[5-(Adamantan-1-yloxymethyl)-2-(1-methyl-cyclohexyl)-1H-imidazole-4-carbonyl]-amino}-benzoic Acid]"
11,24,"Cc1ccccc1-c1nc(C(=O)Nc2cccc(C(=O)O)c2)c(COC23CC4CC(CC(C4)C2)C3)[nH]1 [Example 304, 3-{[5-(Adamantan-1-yloxymethyl)-2-o-tolyl-1H-imidazole-4-carbonyl]-amino}-benzoic Acid]"
12,10,"Cc1ccc(NC(=O)c2nc(-c3ccccc3C)[nH]c2COC23CC4CC(CC(C4)C2)C3)cc1C(=O)O [Example 305, 5-{[5-(Adamantan-1-yloxymethyl)-2-o-tolyl-1H-imidazole-4-carbonyl]-amino}-2-methyl-benzoic Acid]"
13,58.9,"N#Cc1ccccc1-c1nc(C(=O)Nc2cccc(C(=O)O)c2)c(COC23CC4CC(CC(C4)C2)C3)[nH]1 [Example 306, 3-{[5-(Adamantan-1-yloxymethyl)-2-(2-cyano-phenyl)-1H-imidazole-4-carbonyl]-amino}-benzoic Acid]"
